Test results published in patent US12677850B2, “Stevia blends containing rebaudioside B” (Tate & Lyle Solutions USA LLC, priority 2011, dated 2026).

What was measured:
[1] = format: physicochemical; conditions: pH 3
Experimental: To determine the solubility of rebaudioside A and rebaudioside B in certain solutions, four stock solutions were prepared. A 10× concentrated citric acid/sodium citrate pH 3 stock buffer solution was prepared by dissolving 0.9 g anhydrous citric acid and 0.26 g of sodium citrate dihydrate in water to make 100 mL of buffer (0.047 M citric acid+0.0088 M sodium citrate). A 2500 ppm (nominal) solution of rebaudioside A was prepared by dissolving 0.125 g of GLG RA 97 to make 50 mL of solution. A 2500 ppm (nominal) solution of stevioside was prepared by dissolving 0.125 g of GLG STV 97 to make 50 mL of solution. A 1000 ppm (nominal) solution of rebaudioside B was prepared by diluting 56 mL of a solution assayed at 1790 ppm to make 100 mL of solution.
These solutions were mixed as 1 mL total amounts by micropipetting the volumes, in microliters, into 1.5 mL microcentrifuge tubes As shown in Table 14.
After standing for […] (~100 hours), the tubes were spun in a bench top microcentrifuge to pelletize the precipitate. The clear supernate was sampled into vials and assayed for glycosides using a reverse phase high performance liquid chromatograph (HPLC) gradient method with UV detection (Waters 2695 Separations Module equipped with a Waters 2487 Dual X Absorbance Detector or equivalent instrumentation) that is summarized in Table 15. The HPLC conditions were as follows:
The supernatant data collected from the HPLC were processed using DESIGN EXPERT 8 software. Briefly, the data were entered into the program as “factor” data as a 2 factor-5 level general factorial design as the nominal data which were then converted to numerical data and replaced by the actual HPLC results. The software then selected a model that predicted the concentration (solubility) of rebaudioside B as a function of the concentration of rebaudioside A and stevioside in the supernatant. The software also calculated a number of statistical factors that indicated the significance of the model parameters.

[2] = system: panelists (descriptive panel); assay: Descriptive panel: flavor attributes and intensities as a function of rebaudioside B content (Example 6); format: in vivo, human; conditions: for Anise, comparison between the samples / Artificial Sweetener/Chemical, comparison between the samples / Sweetness, comparison between the samples / Total Flavor, comparison between the samples / True Bitter, comparison between the samples / Mouthcoating, comparison between the samples / Total Off Flavor, comparison between the samples: significant at the 95% confidence level
Experimental: A descriptive panel was used to quantify flavor attributes and intensities of varying levels of rebaudioside B added to rebaudioside A (which was 97% pure and contained 0.62% rebaudioside B). […] An 8% sucrose solution as a control. The solutions were prepared in neutral pH water. Other high intensity sweeteners included in the testing were Aspartame at 500 ppm, ASK at 750 ppm, Sucralose at 250 ppm, and Stevia at 500 ppm.
Before conducting the testing the ten panelists were extensively trained in the use of standardized vocabulary to describe the appearance, aroma, flavor, and texture of a wide variety of products in order to rate the samples for sweetness, bitterness, off flavor, chemical or artificial sweetener flavor, anise, and mouth coating. Each such attribute was evaluated on a first and second sip, and on after-taste. The testing began with a session to orient the panelists during which they tasted the samples and discussed the flavor characteristics. They also tasted and discussed references for “sweet”, “bitter”, and “anise”.
During the second and third days of testing, the panelists evaluated the samples for the various attributes and rated them on a scale from none to extreme that encompasses all food ingredient products, not just sweeteners. The products and solutions set forth in Table 19 were used to “anchor” the panelist to the scales.
Eight samples were evaluated per session. A 7 minute rest break was given between each sample and a 15 minute break was given after the first 4 samples had been evaluated. Two evaluations (i.e. replicates) were obtained from each panelist for each product; therefore, a total of 20 judgments were obtained for each product. During data collection, the panelists were instructed to indicate the intensity of each sensory characteristic by placing a vertical slash on 15-cm line scales. The serving order was balanced, with products seen approximately an equal number of times in each possible position. In the waiting room, ambient Alhambra drinking water, unsalted soda crackers, and celery were provided for cleansing the palate between samples.
Slash marks on the line scales were converted to numbers ranging from 1 to 15 by SIMS, the computerized sensory data collection system. Mean intensities were calculated for each sensory characteristic. Analysis of Variance and Duncan's Multiple Range Test, where appropriate, were used to determine significant differences among the samples for each attribute. When panelist-by-product interactions were significant, the mean square of the interaction term, instead of the mean square of the error term, was used in calculation of the product F values.
The flavor attributes were also compared between the samples.

[3] = system: Tate & Lyle employees (taste panel); assay: Paired comparison test for sweetness and preference in pH 3.1 citric acid buffer (Examples 1 and 2); format: in vivo, human
Experimental: A commercial blend of a steviol glycosides was dissolved in 0.0056 M citric acid buffer pH 3.1. A solution containing a commercially available sweetening composition containing 97% rebaudioside A was similarly prepared. Thirty-one […] employees participated in paired comparison tests for sweetness and preference. The products were made up in pH 3.1 citric acid buffer (0.9 grams anhydrous citric […], Decatur, IL) and 026 grams sodium citrate dihydrate ([…], Decatur, IL) per liter and tested at room temperature in two ounce soufflé cups label with random three-digit codes. The presentation order was rotated. The panelists were asked to identify the solution that was sweeter and which they like better. The ballot was presented and the data was collected with SIMS sensory software (Sensory Computer Systems, LLC, Morristown, NJ). Bottled water, a 2% sucrose solution, and unsalted crackers were available for the panelists to clear their palates before and during testing. The results of the sweetness and preference questions were analyzed with the binomial test and the Thurstonian d' calculated. The p-value for a one-tailed binomial test is calculated as [formula] where c is the number of successes, n is the number of trials, and p0 is the chance probability. A test is considered statistically significant when the p-value is less than the a priori set alpha risk. The two-tailed p-value is double the one-tailed p-value as calculated above. Thurstonian d' is a linear measure of psychophysical difference. A d' of 1 is generally considered to be a just-noticeable-difference (JND) where a stimulus will be judge stronger in 75% of the trials. The Thurstonian d' is independent of test method and for paired comparison tests is calculated as pc=Φ(d'/√{square root over (2)}) where pc is the proportion of successes, and Φ(•) is the cumulative distribution function of the standard normal distribution. These statistical terms are more fully defined in standard textbooks on the subject such as “Sensory Discrimination Tests and Measurements”, Jian Bi (Blackwell Publishing, 2006). The instructions for the paired comparison test were: • (i) It is important that you rinse before and between samples. • (ii) Clear your palate with a bite of cracker. Then rinse with the sugar water. […] Pick the sample that you like more and pick the sample that is sweeter. They may or may not be the same sample. If you are not sure or don't have a preference then pick either one. The questions for the paired comparison test were: • (i) Which of these two samples do you like more?, • (ii) Which of the two samples is sweeter? The glycoside blend of a steviol glycosides was dissolved in 0.0056 M citric acid buffer pH 3.1. A solution containing a commercially available sweetening composition containing 97% rebaudioside A was similarly prepared. The two solutions were presented to a panel of […] employees and they were asked to identify the solution that was sweeter and which they like better using the same instructions and questions as set forth above. The results of the sweetness and preference questions were analyzed with the binomial test and the Thurstonian d' calculated as set forth above. A taste panel was asked to compare a commercial mixture of rebaudioside A and stevioside to a 500 ppm sample of 97% rebaudioside A. The glycoside blend of steviol glycosides was dissolved in 0.0056 M citric acid buffer pH 3.1. A solution containing a commercially available sweetening composition containing 97% rebaudioside A was similarly prepared. Sample presentation was rotated and the samples of the two solutions (at room temperature) were presented to a panel of […] employees and they were asked to identify the solution that was sweeter and which they like better using the same instructions and questions as in Example 1. […] Another panel was asked to compare a mixture of rebaudioside B and Stevioside. The glycoside blend of steviol glycosides was dissolved in 0.0056 M citric acid buffer pH 3.1. […]

[4] = 900 ppm rebaudioside A+rebaudioside B in neutral pH water, 8% sucrose control, 15-cm line scale converted to 1 to 15, aftertaste
[5] = 900 ppm rebaudioside A+rebaudioside B in neutral pH water, 8% sucrose control, 15-cm line scale converted to 1 to 15, first sip
[6] = 900 ppm rebaudioside A+rebaudioside B in neutral pH water, 8% sucrose control, 15-cm line scale converted to 1 to 15, second sip
[7] = Commercial Blend (total 518 mg/l) vs 97% rebaudioside A (total 498), room temperature, 31 panelists
[8] = Rebaudioside A & stevioside blend (total 789 mg/l) vs 500 ppm 97% rebaudioside A, 41 panelists
[9] = Rebaudioside B & stevioside blend (total 801 mg/l) vs 97% rebaudioside A (500 ppm), 43 panelists
[10] = Rebaudioside B blend (total 496 mg/l, about 21% Reb B) vs 97% rebaudioside A (total 498), 38 panelists

C=C1C[C@@]23CC[C@H]4[C@@](C)(CCC[C@@]4(C)C(=O)O[C@@H]4O[C@H](CO)[C@@H](O)[C@H](O)[C@H]4O)[C@@H]2CC[C@]1(O[C@@H]1O[C@H](CO)[C@@H](O)[C@H](O)[C@H]1O[C@@H]1O[C@H](CO)[C@@H](O)[C@H](O)[C@H]1O)C3 [stevioside]
effect of its presence on the solubility of rebaudioside B [1]: slightly reduces

OC[C@H]1O[C@@](CO)(O[C@H]2O[C@H](CO)[C@@H](O)[C@H](O)[C@H]2O)[C@@H](O)[C@@H]1O [Sucrose, sucrose]
ANISE: Aftertaste (mean intensity) [2, 4]: 0.13
ARTIFICIAL SWEETENER/CHEMICAL: Aftertaste (mean intensity) [2, 4]: 0.12
SWEET: Aftertaste (mean intensity) [2, 4]: 3.92
TOTAL FLAVOR: Aftertaste (mean intensity) [2, 4]: 4.32
TRUE BITTER: Aftertaste (mean intensity) [2, 4]: 0.15
ANISE: First Sip (mean intensity) [2, 5]: 0.52
ARTIFICIAL SWEETENER/CHEMICAL: First Sip (mean intensity) [2, 5]: 0.59
MOUTHCOATING: First Sip (mean intensity) [2, 5]: 0.76
SWEET: First Sip (mean intensity) [2, 5]: 8.06
TOTAL FLAVOR: First Sip (mean intensity) [2, 5]: 8.67
TOTAL OFF FLAVOR: First Sip (mean intensity) [2, 5]: 0.89
TRUE BITTER: First Sip (mean intensity) [2, 5]: 0.29
ANISE: Second Sip (mean intensity) [2, 6]: 0.41
ARTIFICIAL SWEETENER/CHEMICAL: Second Sip (mean intensity) [2, 6]: 0.41
MOUTHCOATING: Second Sip (mean intensity) [2, 6]: 0.89
SWEET: Second Sip (mean intensity) [2, 6]: 7.43
TOTAL FLAVOR: Second Sip (mean intensity) [2, 6]: 7.86
TOTAL OFF FLAVOR: Second Sip (mean intensity) [2, 6]: 0.49
TRUE BITTER: Second Sip (mean intensity) [2, 6]: 0.24
Anise, comparison between the samples ([2]; aftertaste): Lowest
Artificial Sweetener/Chemical, comparison between the samples ([2]; aftertaste): Lowest
Sweetness, comparison between the samples ([2]; aftertaste): Lowest
Total Flavor, comparison between the samples ([2]; aftertaste): Lowest
True Bitter, comparison between the samples ([2]; aftertaste): Lowest
Anise, comparison between the samples ([2]; first sip): Lowest
Artificial Sweetener/Chemical, comparison between the samples ([2]; first sip): Lowest
Mouthcoating, comparison between the samples ([2]; first sip): Lowest
Sweetness, comparison between the samples ([2]; first sip): Lowest
Total Flavor, comparison between the samples ([2]; first sip): Lowest
Total Off Flavor, comparison between the samples ([2]; first sip): Lowest
True Bitter, comparison between the samples ([2]; first sip): Lowest
Anise, comparison between the samples ([2]; second sip): Lowest
Artificial Sweetener/Chemical, comparison between the samples ([2]; second sip): Lowest
Mouthcoating, comparison between the samples ([2]; second sip): Lowest
Total Flavor, comparison between the samples ([2]; second sip): Lowest
Total Off Flavor, comparison between the samples ([2]; second sip): Lowest
True Bitter, comparison between the samples ([2]; second sip): Lowest

rebaudioside A [97% rebaudioside A]
# preferring [3, 7]: 20
# sweeter [3, 7]: 15
# preferring [3, 8]: 37
# sweeter [3, 8]: 19
# preferring [3, 9]: 22
# sweeter [3, 9]: 13
# preferring [3, 10]: 11
# sweeter [3, 10]: 11
